{
  "source": "patent US20060105068A1",
  "about": "“Dietary supplement formulations containing Hoodia gordonii” (priority 2003, published 2006)",
  "origin": "cited, not measured here",
  "key": {"[1]": {"conditions": "after fifteen weeks; 1200 calorie/day diet"}, "[2]": {"conditions": "rats"}, "[3]": {"conditions": "United States; therapeutic range; aspirin and associated compounds"}},
  "data": [
    {"molecule": "CCN[C@@H](C)Cc1cccc(C(F)(F)F)c1", "note": "[dexfenfluramine]", "values": [
      {"measurement": "weight lost", "setting": "[1]", "value": "15.2+/−9.5 lbs"}
    ]},
    {"molecule": "O=C(O[C@@H]1Cc2c(O)cc(O)cc2O[C@@H]1c1cc(O)c(O)c(O)c1)c1cc(O)c(O)c(O)c1", "note": "[epigallocatechin gallate]", "values": [
      {"measurement": "loss of body weight", "setting": "[2]", "value": "up to 21%"},
      {"measurement": "decrease in appetite", "setting": "[2]; after seven days of injections", "value": 60, "unit": "%"}
    ]},
    {"molecule": "CC(=O)Oc1ccccc1C(=O)O", "note": "[aspirin]", "values": [
      {"measurement": "people who die each year", "setting": "[3]", "value": "7,600"}
    ]},
    {"molecule": "NC(Cc1cc(I)c(Oc2cc(I)c(O)c(I)c2)c(I)c1)C(=O)O", "note": "(stereo not drawn) [throxine]", "values": [
      {"measurement": "reduction in CYP450", "setting": "cytochrome P450; when throxine is increased", "value": "60-80%"}
    ]},
    {"molecule": "Naringinine [Naringinines]", "values": [
      {"measurement": "effect on cytochrome P450 enzymes", "setting": "cytochrome P450", "value": "inhibit"}
    ]},
    {"molecule": "CC(=O)OC1CC[C@@]2(C)C(=CC(=O)[C@@H]3[C@@H]2CC[C@]2(C)C(=O)CC[C@@H]32)C1", "note": "(stereo partly drawn) [Formula 7-Keto, 3-acetyl-7-oxo-dehydroepiandrosterone]", "values": [
      {"measurement": "body weight, body mass index (BMI), and waist and hip circumference versus placebo", "setting": "8-week treatment period", "value": "statistically significant reductions"},
      {"measurement": "tolerability / adverse events", "setting": "8-week treatment period", "value": "well tolerated and no serious adverse events were reported"},
      {"measurement": "effect on testosterone levels", "setting": "human, in vivo", "value": "does not increase testosterone levels"}
    ]}
  ]
}
